The experiment addresses Neuronal acetylcholine receptor subunit alpha-4/beta-2 (Homo sapiens, UniProt P43681+P17787). As to the kind of experiment: Antagonist activity at human nAChR alpha4/beta2 receptor expressed in HEK ts201 cells assessed as calcium accumulation by fluorescence analysis.

Molecules are shown by their SMILES.

Sequence of Neuronal acetylcholine receptor subunit alpha-4/beta-2 (P43681 whole entry): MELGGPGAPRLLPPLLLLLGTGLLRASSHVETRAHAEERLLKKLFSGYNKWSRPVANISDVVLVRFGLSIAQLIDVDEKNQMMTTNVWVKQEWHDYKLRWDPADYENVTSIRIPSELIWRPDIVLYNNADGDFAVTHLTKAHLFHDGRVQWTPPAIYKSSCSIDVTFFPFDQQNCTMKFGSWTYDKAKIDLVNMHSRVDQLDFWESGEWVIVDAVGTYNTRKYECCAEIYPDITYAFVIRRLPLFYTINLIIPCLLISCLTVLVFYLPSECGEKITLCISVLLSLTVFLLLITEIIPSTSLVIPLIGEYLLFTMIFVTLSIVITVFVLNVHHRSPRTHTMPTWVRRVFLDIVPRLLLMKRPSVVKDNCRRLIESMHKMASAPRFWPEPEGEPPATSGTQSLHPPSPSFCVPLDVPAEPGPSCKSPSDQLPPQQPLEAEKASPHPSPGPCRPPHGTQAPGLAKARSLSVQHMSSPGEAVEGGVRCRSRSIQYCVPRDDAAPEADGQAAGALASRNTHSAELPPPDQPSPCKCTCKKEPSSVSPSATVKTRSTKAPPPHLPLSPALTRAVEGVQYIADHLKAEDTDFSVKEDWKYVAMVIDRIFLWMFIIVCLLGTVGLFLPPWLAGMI
Sequence of Neuronal acetylcholine receptor subunit alpha-4/beta-2 (P17787 whole entry): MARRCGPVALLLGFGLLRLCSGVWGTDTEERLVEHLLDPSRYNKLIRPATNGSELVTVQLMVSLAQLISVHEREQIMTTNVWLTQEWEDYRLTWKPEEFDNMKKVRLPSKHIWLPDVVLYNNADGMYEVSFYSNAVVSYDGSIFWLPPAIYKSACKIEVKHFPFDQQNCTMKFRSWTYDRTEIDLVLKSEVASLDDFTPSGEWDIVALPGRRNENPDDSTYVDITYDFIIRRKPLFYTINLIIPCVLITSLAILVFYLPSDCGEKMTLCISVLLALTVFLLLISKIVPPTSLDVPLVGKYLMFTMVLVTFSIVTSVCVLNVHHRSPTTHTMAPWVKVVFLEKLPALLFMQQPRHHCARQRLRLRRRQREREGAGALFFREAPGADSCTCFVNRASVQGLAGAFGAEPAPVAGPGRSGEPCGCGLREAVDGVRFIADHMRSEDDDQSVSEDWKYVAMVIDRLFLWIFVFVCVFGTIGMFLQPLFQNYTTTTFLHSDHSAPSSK

Regarding `O=C(OCC1=CCCN(CCCc2ccccc2)C1)c1ccccc1-n1c(O)cc(Cc2ccccc2)c1O`, the IC50 – broadly, the concentration that gives 50% inhibition – stood at 5.13 µM. As for `O=C(OCC1CCCN(CCc2ccccc2)C1)c1ccccc1-n1c(O)cc(Cc2ccccc2)c1O` (stereo not given), the figure is 4.47 µM; as for `O=C(OCC1CCCN(CCCc2ccccc2)C1)c1ccccc1-n1c(O)cc(CCc2ccccc2)c1O` (stereo not given), 5.13 µM; as for `Cc1cc(O)n(-c2ccccc2C(=O)OC[C@@H]2CCCN(CCCc3ccccc3)C2)c1O`, 8.91 µM. As for `CCN1CCCC(COC(=O)c2ccccc2-n2c(O)cc(Cc3ccccc3)c2O)C1` (stereo not given), the figure is 4.47 µM.
